Reference: PubChem BioAssay (NCI)
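Five compound concentrations were applied to cells in 96-well plates for 48 hours; endpoints were derived by simple linear interpolation of the resulting dose-response curve. GI50: concentration for 50% inhibition of growth. TGI marks complete inhibition of growth.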

What was measured:
Assay in all cases: growth of human tumour cells (NCI), 48 h
MALME-3M melanoma = test system: MALME-3M melanoma
SNB-75 CNS = test system: SNB-75 CNS
HCT-116 colon = test system: HCT-116 colon
CCRF-CEM leukemia = test system: CCRF-CEM leukemia
MDA-MB-231 breast = test system: MDA-MB-231 breast
OVCAR-4 ovarian = test system: OVCAR-4 ovarian
PC-3 prostate = test system: PC-3 prostate
MDA-N = test system: MDA-N
786-0 renal = test system: 786-0 renal
OVCAR-5 ovarian = test system: OVCAR-5 ovarian
MOLT-4 leukemia = test system: MOLT-4 leukemia
NCI/ADR-RES ovarian = test system: NCI/ADR-RES ovarian
A549 NSCLC = test system: A549 NSCLC
OVCAR-3 ovarian = test system: OVCAR-3 ovarian
HL-60(TB) leukemia = test system: HL-60(TB) leukemia
M14 melanoma = test system: M14 melanoma
MCF7 breast = test system: MCF7 breast
HCT-15 colon = test system: HCT-15 colon
SW-620 colon = test system: SW-620 colon
SF-539 CNS = test system: SF-539 CNS
EKVX NSCLC = test system: EKVX NSCLC
UO-31 renal = test system: UO-31 renal
SK-MEL-28 melanoma = test system: SK-MEL-28 melanoma
ACHN renal = test system: ACHN renal
SK-MEL-5 melanoma = test system: SK-MEL-5 melanoma
SNB-19 CNS = test system: SNB-19 CNS
RPMI-8226 leukemia = test system: RPMI-8226 leukemia
K-562 leukemia = test system: K-562 leukemia
IGROV1 ovarian = test system: IGROV1 ovarian
HOP-62 NSCLC = test system: HOP-62 NSCLC
DU-145 prostate = test system: DU-145 prostate
DMS 114 small cell lung = test system: DMS 114 small cell lung
CAKI-1 renal = test system: CAKI-1 renal
MDA-MB-435 = test system: MDA-MB-435
T-47D breast = test system: T-47D breast
SK-MEL-2 melanoma = test system: SK-MEL-2 melanoma
NCI-H226 lung = test system: NCI-H226 lung
NCI-H23 lung = test system: NCI-H23 lung
SF-295 CNS = test system: SF-295 CNS
COLO 205 colon = test system: COLO 205 colon
SK-OV-3 ovarian = test system: SK-OV-3 ovarian
U251 CNS = test system: U251 CNS
NCI-H522 lung = test system: NCI-H522 lung
SF-268 CNS = test system: SF-268 CNS
UACC-257 melanoma = test system: UACC-257 melanoma
SN12C renal = test system: SN12C renal
KM12 colon = test system: KM12 colon
BT-549 breast = test system: BT-549 breast
RXF 393 renal = test system: RXF 393 renal
OVCAR-8 ovarian = test system: OVCAR-8 ovarian
HOP-92 NSCLC = test system: HOP-92 NSCLC
TK-10 renal = test system: TK-10 renal
HCC-2998 colon = test system: HCC-2998 colon
HS 578T breast = test system: HS 578T breast
NCI-H460 lung = test system: NCI-H460 lung
SR leukemia = test system: SR leukemia
UACC-62 melanoma = test system: UACC-62 melanoma
LOX IMVI melanoma = test system: LOX IMVI melanoma
HT29 colon = test system: HT29 colon
A498 renal = test system: A498 renal

With CCSC(=O)N1c2ccc(OC)cc2C=CC1C#N (stereo unspecified) the TGI (MALME-3M melanoma) was > 1000 µM, the GI50 (SNB-75 CNS) was 0.231 µM and the TGI (SNB-75 CNS) was > 1000 µM. The TGI (HCT-116 colon) was 0.0382 µM, the TGI (CCRF-CEM leukemia) was > 1000 µM and the GI50 (MDA-MB-231 breast) was 0.529 µM. The TGI (OVCAR-4 ovarian) was > 1000 µM, the GI50 (PC-3 prostate) was 0.214 µM and the TGI (PC-3 prostate) was > 1000 µM. It also gave a GI50 (MDA-N) of 0.0003 µM, a TGI (MDA-N) of 0.00138 µM and a TGI (786-0 renal) of 121 µM. The GI50 (OVCAR-5 ovarian) was 0.596 µM, the TGI (OVCAR-5 ovarian) was > 1000 µM and the TGI (MOLT-4 leukemia) was > 1000 µM. For the same compound, the GI50 (NCI/ADR-RES ovarian) was 0.00254 µM, the TGI (A549 NSCLC) was > 1000 µM and the TGI (OVCAR-3 ovarian) was 0.0062 µM. For the same compound, the TGI (HL-60(TB) leukemia) was 0.00522 µM, the TGI (M14 melanoma) was > 1000 µM and the GI50 (MCF7 breast) was 0.000805 µM. The TGI (MCF7 breast) was > 1000 µM, the GI50 (HCT-15 colon) was 0.00168 µM and the TGI (SW-620 colon) was 199 µM. For the same compound, the TGI (SF-539 CNS) was 0.00582 µM, the TGI (EKVX NSCLC) was > 1000 µM and the TGI (UO-31 renal) was > 1000 µM. The TGI (SK-MEL-28 melanoma) was > 1000 µM, the TGI (ACHN renal) was > 1000 µM and the TGI (SK-MEL-5 melanoma) was 0.224 µM. For the same compound, the GI50 (SNB-19 CNS) was 6.08 µM, the TGI (SNB-19 CNS) was > 1000 µM and the TGI (RPMI-8226 leukemia) was 689 µM. The TGI (K-562 leukemia) was > 1000 µM, the TGI (IGROV1 ovarian) was > 1000 µM and the TGI (HOP-62 NSCLC) was 0.0467 µM. The TGI (DU-145 prostate) was 0.0105 µM, the TGI (DMS 114 small cell lung) was 1.02 µM and the TGI (CAKI-1 renal) was 737 µM. It also gave a GI50 (MDA-MB-435) of 0.000369 µM, a TGI (MDA-MB-435) of 0.00553 µM and a TGI (T-47D breast) of 734 µM. It also gave a TGI (SK-MEL-2 melanoma) of 7.43 µM.

Work on O=c1ssc2c1Nc1c(ssc1=O)S2 yielded a TGI (MALME-3M melanoma) of 22.4 µM, a TGI (SNB-75 CNS) of 30.2 µM and a TGI (HCT-116 colon) of 31.2 µM. The TGI (CCRF-CEM leukemia) was 6.8 µM, the TGI (MDA-MB-231 breast) was 57.3 µM and the TGI (NCI-H226 lung) was 46.5 µM. It also gave a TGI (OVCAR-4 ovarian) of 28.2 µM, a TGI (NCI-H23 lung) of 35.3 µM and a TGI (SF-295 CNS) of 74.7 µM. For the same compound, the TGI (PC-3 prostate) was 25.5 µM, the TGI (MDA-N) was 31.9 µM and the TGI (786-0 renal) was 14.5 µM. It also gave a TGI (OVCAR-5 ovarian) of 32.4 µM, a TGI (MOLT-4 leukemia) of 28.4 µM and a TGI (NCI/ADR-RES ovarian) of 37.4 µM. The TGI (A549 NSCLC) was 41 µM, the TGI (OVCAR-3 ovarian) was 32.4 µM and the TGI (COLO 205 colon) was 36.4 µM. For the same compound, the TGI (HL-60(TB) leukemia) was 15.5 µM, the TGI (M14 melanoma) was 27.2 µM and the TGI (SK-OV-3 ovarian) was 36.3 µM. For the same compound, the TGI (U251 CNS) was 33.3 µM, the TGI (MCF7 breast) was 39.2 µM and the TGI (NCI-H522 lung) was 37.4 µM. For the same compound, the TGI (SF-268 CNS) was 33.5 µM, the TGI (UACC-257 melanoma) was 28.3 µM and the TGI (SN12C renal) was 28.1 µM. The TGI (HCT-15 colon) was 41.3 µM, the TGI (SW-620 colon) was 31.1 µM and the TGI (SF-539 CNS) was 21.5 µM. It also gave a TGI (EKVX NSCLC) of 30 µM, a TGI (KM12 colon) of 28.6 µM and a TGI (BT-549 breast) of 52.5 µM. It also gave a TGI (UO-31 renal) of 24.4 µM, a TGI (SK-MEL-28 melanoma) of 34.2 µM and a TGI (RXF 393 renal) of 17.4 µM. It also gave a TGI (ACHN renal) of 30.2 µM, a TGI (SK-MEL-5 melanoma) of 29.4 µM and a TGI (OVCAR-8 ovarian) of 28.6 µM. It also gave a TGI (SNB-19 CNS) of 34.7 µM, a TGI (RPMI-8226 leukemia) of 21.1 µM and a TGI (K-562 leukemia) of 25.2 µM. The TGI (IGROV1 ovarian) was 26.4 µM, the TGI (HOP-62 NSCLC) was 36.4 µM and the TGI (HOP-92 NSCLC) was 28.7 µM. It also gave a TGI (DU-145 prostate) of 26.2 µM, a TGI (TK-10 renal) of 29.5 µM and a TGI (HCC-2998 colon) of 29.4 µM. The TGI (HS 578T breast) was > 100 µM, the TGI (CAKI-1 renal) was 33.3 µM and the TGI (MDA-MB-435) was 33.5 µM. It also gave a TGI (NCI-H460 lung) of 36.4 µM, a TGI (T-47D breast) of 26.2 µM and a TGI (SK-MEL-2 melanoma) of 32.1 µM. For the same compound, the TGI (SR leukemia) was 5.49 µM, the TGI (UACC-62 melanoma) was 27.3 µM and the TGI (LOX IMVI melanoma) was 24.3 µM. The TGI (HT29 colon) was 73.8 µM and the TGI (A498 renal) was 24.7 µM.

In the case of CN(C)c1ccc(C2SCC(=O)N2c2nc3cc4sc(N5C(=O)CSC5c5ccc(N(C)C)cc5)nc4cc3s2)cc1 (stereo unspecified), the TGI (MALME-3M melanoma) is reported as > 100 µM, the TGI (SNB-75 CNS) is reported as > 100 µM and the TGI (HCT-116 colon) is reported as > 100 µM. The TGI (CCRF-CEM leukemia) was > 100 µM, the TGI (MDA-MB-231 breast) was > 100 µM and the TGI (NCI-H226 lung) was 73.1 µM. For the same compound, the TGI (OVCAR-4 ovarian) was > 100 µM, the TGI (NCI-H23 lung) was > 100 µM and the TGI (SF-295 CNS) was > 100 µM. For the same compound, the TGI (PC-3 prostate) was > 100 µM, the TGI (MDA-N) was > 100 µM and the TGI (786-0 renal) was > 100 µM. For the same compound, the TGI (OVCAR-5 ovarian) was > 100 µM, the TGI (MOLT-4 leukemia) was > 100 µM and the TGI (NCI/ADR-RES ovarian) was > 76.3 µM. The TGI (A549 NSCLC) was > 100 µM, the TGI (OVCAR-3 ovarian) was > 100 µM and the TGI (COLO 205 colon) was > 100 µM. The TGI (HL-60(TB) leukemia) was > 100 µM, the TGI (M14 melanoma) was > 100 µM and the TGI (SK-OV-3 ovarian) was > 100 µM. The TGI (U251 CNS) was > 100 µM, the TGI (MCF7 breast) was > 100 µM and the TGI (NCI-H522 lung) was > 100 µM. The TGI (SF-268 CNS) was > 100 µM, the TGI (UACC-257 melanoma) was > 70 µM and the TGI (SN12C renal) was > 100 µM. The TGI (HCT-15 colon) was > 100 µM, the TGI (SW-620 colon) was > 100 µM and the TGI (SF-539 CNS) was > 100 µM. The TGI (EKVX NSCLC) was > 100 µM, the TGI (KM12 colon) was > 100 µM and the TGI (BT-549 breast) was > 100 µM. The TGI (UO-31 renal) was > 100 µM, the TGI (SK-MEL-28 melanoma) was > 100 µM and the TGI (RXF 393 renal) was > 100 µM. For the same compound, the TGI (ACHN renal) was > 100 µM, the TGI (SK-MEL-5 melanoma) was > 100 µM and the TGI (OVCAR-8 ovarian) was > 100 µM. The TGI (SNB-19 CNS) was > 100 µM, the TGI (RPMI-8226 leukemia) was > 100 µM and the TGI (K-562 leukemia) was > 100 µM. For the same compound, the TGI (IGROV1 ovarian) was > 100 µM, the TGI (HOP-62 NSCLC) was > 100 µM and the TGI (HOP-92 NSCLC) was > 100 µM. The TGI (DU-145 prostate) was > 87.2 µM, the TGI (TK-10 renal) was > 100 µM and the TGI (HCC-2998 colon) was > 100 µM. The TGI (HS 578T breast) was > 100 µM, the TGI (CAKI-1 renal) was > 100 µM and the TGI (MDA-MB-435) was > 100 µM. The TGI (NCI-H460 lung) was > 28.3 µM, the TGI (T-47D breast) was > 100 µM and the TGI (SK-MEL-2 melanoma) was > 100 µM. The TGI (SR leukemia) was > 100 µM, the TGI (UACC-62 melanoma) was > 100 µM and the TGI (LOX IMVI melanoma) was > 100 µM. For the same compound, the TGI (HT29 colon) was > 100 µM and the TGI (A498 renal) was > 100 µM.
